# Measurements from publication PMC4932603, “Identification, Characterization, and X-ray Crystallographic Analysis of a Novel Type of Mannose-Specific Lectin CGL1 from the Pacific Oyster Crassostrea gigas” (Scientific Reports, 2016).
# Columns and labels:
# nCGL1 (native CGL1) = target: T1, nCGL1 (native CGL1) (Magallana gigas, UniProt K1QRB6); experiment: isothermal titration calorimetry; assay type: binding; details: read-out: K / × 10^3 M^-1 (converted)
# T1 construct: gene CGI_10011001; native purification from oyster bodies (mannose-Cellulofine)
# Excerpt: isothermal titration calorimetry on nCGL1 (native CGL1)
# [1] = target: CGL1 (preparation not told: native or recombinant) (Crassostrea gigas); experiment: dynamic light scattering (DLS) + other: small angle X-ray scattering (SAXS); in an aqueous solution
Kd (nCGL1 (native CGL1)) [µM],stoichiometry N [1],Compound
671,–,CO[C@H]1O[C@H](CO)[C@@H](O)[C@H](O)[C@@H]1O [α-MeMan]
–,2,CGL1 (preparation not told: native or recombinant) (natural protein)
